Experimental data reported in patent US20100016352A1, “COMPOUNDS AND METHODS FOR TREATING ESTROGEN RECEPTOR-RELATED DISEASES” (priority 2008, published 2010).

Tests used:
[1] = system: Human Breast Cancer BCAP-37 Cells xenografts; experiment: In vivo efficacy in inhibiting growth of human breast cancer BCAP-37 cells xenografts in nude mice; settings: Mus musculus, Bcap37, po, 360 h; female nude mice, BCAP-37 xenograft, 35 mg/kg fed once every day for 15 days, tumor weight vs olive oil negative control; read-out: Inhibition rate of tumor growth (%)
Protocol: The In Vivo Efficacy in Inhibiting Growth of Human Breast Cancer BCAP-37 Cells Xenografts in Nude Mice Model
Nude mice with breast cancer xenografts are treated with the test compounds 5, 6, 8, 14, 22, 36 and 38 to test their effect on inhibiting tumor growth. Tumor tissues are taken from nude mice bearing BCAP-37 breast cancer and cut into small pieces. Several pieces of the tumor tissues are implanted into the armpit under the right front limb of female nude mice. After the implantation, the mice are fed with E2β solution once every day at the dosage of 7 μg per mouse for 6 days to stimulate tumor growth in the receiving mice. Starting on the seventh day, the mice are fed with the test compounds at the dosage of 35 mg/kg. Tamoxifen is used as a positive control. Olive oil is used as a negative control. The test compounds are prepared as an olive oil solution (20 mg/mL). The mice are given the test compounds and Tamoxifen at the dosage of 35 mg/kg or olive oil once every day for 15 days. Then the mice are sacrificed and the tumor tissues are dissected from the mice and weighed. The tumor growth inhibition rate is a percentage calculated using the formula: tumor growth inhibition rate=(average weight of the tumor in the negative control−average weight of the tumor treated with test compound)/average weight of the tumor in the negative control.

[2] = system: MCF7 cells; experiment: Cell apoptosis assay in ER-positive breast cancer MCF7 cells (cell number after treatment); assay type: cell-based, human; settings: 10 days
Excerpt: Cell Apoptosis Assay in ER-Positive Breast Cancer MCF7 Cells
MCF7 cell line is a breast cancer cell line that strongly expresses ER-α66, ER-α46 and ER-α36 (Relevance of breast cancer cell lines as models for breast tumours: an update. Marc Lacroix, Guy Leclercq, Breast Cancer Research and Treatment (2004) 83, 249-289; Wang et al., Proc. Natl. Acad. Sci. U.S.A. 103:9063-9068 (2006)). MCF7 cells obtained from ATCC are maintained in DMEM/F12 medium (Invitrogen) supplemented with 10% fetal calf serum at 37° C. in a 5% CO2 atmosphere. The MCF7 cells are treated with the test compounds 6, 8, 14, 22, 27, 29, 30, 31, 36 and 38 at concentrations from 1 μM to 25 μM to test the effect of these compounds on MCF7 cell growth for 10 days. The control assay is conducted with MCF7 cells under the same assay conditions except that no test compound is added. Treated cells are examined under a Nikon TS100 inverted microscope and photographed for morphological changes.

[3] = MCF-7, tested compound concentration 1 μM
[4] = MCF-7, tested compound concentration 5 μM
[5] = MCF-7, tested compound concentration 10 μM
[6] = MCF-7, tested compound concentration 15 μM
[7] = MCF-7, tested compound concentration 25 μM

`COc1ccc(-c2oc3c(CC=C(C)C)c(O)cc(O)c3c(=O)c2OC)cc1OC` [Compound 5, 5,7-dihydroxy-3-methoxy-2-(3,4-dimethoxyphenyl)-8-(3-methylbut-2-enyl)-4H-chromen-4-one] was tested, and the inhibition in vivo at 35 mg/kg [1] was 26%.
With `COc1ccc(-c2oc3c(CCC(C)(C)O)c(O)cc(O)c3c(=O)c2OC)cc1OC` [Compound 6, 5,7-dihydroxy-8-(3-hydroxy-3-methylbutyl)-3-methoxy-2-(3,4-dimethoxyphenyl)-4H-chromen-4-one] the “Cell Number (×10^4)” value [2, 3] was 18.35 ×10^4, the “Cell Number (×10^4)” value [2, 4] was 8.97 ×10^4 and the “Cell Number (×10^4)” value [2, 5] was 3.95 ×10^4. The “Cell Number (×10^4)” value [2, 6] was 3.9 ×10^4, the “Cell Number (×10^4)” value [2, 7] was 3.87 ×10^4 and the inhibition in vivo at 35 mg/kg [1] was 44%.
With `COc1ccc(-c2oc3c(CCC(C)(C)N)c(O)cc(O)c3c(=O)c2O)cc1` [Compound 8, 8-(3-amino-3-methylbutyl)-3,5,7-trihydroxy-2-(4-methoxyphenyl)-4H-chromen-4-one] the “Cell Number (×10^4)” value [2, 3] was 28.75 ×10^4, the “Cell Number (×10^4)” value [2, 4] was 15.35 ×10^4 and the “Cell Number (×10^4)” value [2, 5] was 10.1 ×10^4. For the same compound, the “Cell Number (×10^4)” value [2, 6] was 6.45 ×10^4, the “Cell Number (×10^4)” value [2, 7] was 0.25 ×10^4 and the inhibition in vivo at 35 mg/kg [1] was 62%.
For `COc1c(-c2ccc(Cl)cc2)oc2c(CC=C(C)C)c(O)cc(O)c2c1=O` [Compound 14, 2-(4-chlorophenyl)-5,7-dihydroxy-3-methoxy-8-(3-methylbut-2-enyl)-4H-chromen-4-one], the “Cell Number (×10^4)” value [2, 3] was 30.05 ×10^4, the “Cell Number (×10^4)” value [2, 4] was 14.54 ×10^4 and the “Cell Number (×10^4)” value [2, 5] was 2.51 ×10^4. The “Cell Number (×10^4)” value [2, 6] was 0 ×10^4, the “Cell Number (×10^4)” value [2, 7] was 0 ×10^4 and the inhibition in vivo at 35 mg/kg [1] was 37%.
For `CC(C)=CCc1c(O)cc(O)c2c(=O)cc(-c3ccc(Cl)cc3)oc12` [Compound 22, 2-(4-chlorophenyl)-5,7-dihydroxy-8-(3-methylbut-2-enyl)-4H-chromen-4-one], the “Cell Number (×10^4)” value [2, 3] was 39.0 ×10^4, the “Cell Number (×10^4)” value [2, 4] was 21.6 ×10^4 and the “Cell Number (×10^4)” value [2, 5] was 15.6 ×10^4. The “Cell Number (×10^4)” value [2, 6] was 4.2 ×10^4, the “Cell Number (×10^4)” value [2, 7] was 0.6 ×10^4 and the inhibition in vivo at 35 mg/kg [1] was 66%.
For `COc1ccc(-c2cc(=O)c3c(O)cc(O)c(CC=C(C)C)c3o2)cc1Cl` [Compound 27, 2-(3-chloro-4-methoxyphenyl)-5,7-dihydroxy-8-(3-methylbut-2-enyl)-4H-chromen-4-one], the “Cell Number (×10^4)” value [2, 3] was 59.4 ×10^4, the “Cell Number (×10^4)” value [2, 4] was 45.2 ×10^4 and the “Cell Number (×10^4)” value [2, 5] was 5.4 ×10^4. For the same compound, the “Cell Number (×10^4)” value [2, 6] was 1.05 ×10^4 and the “Cell Number (×10^4)” value [2, 7] was 0 ×10^4.
In the case of `CC(C)=CCc1c(O)ccc2c(=O)cc(-c3ccc(C(F)(F)F)cc3)oc12` [Compound 29, 2-(4-(trifluoromethyl)phenyl)-7-hydroxy-8-(3-methylbut-2-enyl)-4H-chromen-4-one], the “Cell Number (×10^4)” value [2, 3] is reported as 27.9 ×10^4, the “Cell Number (×10^4)” value [2, 4] is reported as 30.1 ×10^4 and the “Cell Number (×10^4)” value [2, 5] is reported as 24.3 ×10^4. For the same compound, the “Cell Number (×10^4)” value [2, 6] was 23.4 ×10^4 and the “Cell Number (×10^4)” value [2, 7] was 12.3 ×10^4.
For `CC(C)=CCc1c(O)ccc2c(=O)cc(-c3ccc(C)cc3)oc12` [Compound 30, 7-hydroxy-8-(3-methylbut-2-enyl)-2-(4-methylphenyl)-4H-chromen-4-one], the “Cell Number (×10^4)” value [2, 3] was 21.1 ×10^4, the “Cell Number (×10^4)” value [2, 4] was 10.8 ×10^4 and the “Cell Number (×10^4)” value [2, 5] was 5.8 ×10^4. The “Cell Number (×10^4)” value [2, 6] was 3.6 ×10^4 and the “Cell Number (×10^4)” value [2, 7] was 1.5 ×10^4.
In the case of `CC(C)=CCc1c(O)ccc2c(=O)cc(-c3ccc(F)cc3)oc12` [Compound 31, 2-(4-fluorophenyl)-7-hydroxy-8-(3-methylbut-2-enyl)-4H-chromen-4-one], the “Cell Number (×10^4)” value [2, 3] is reported as 24.0 ×10^4, the “Cell Number (×10^4)” value [2, 4] is reported as 25.5 ×10^4 and the “Cell Number (×10^4)” value [2, 5] is reported as 27.25 ×10^4. The “Cell Number (×10^4)” value [2, 6] was 9.6 ×10^4 and the “Cell Number (×10^4)” value [2, 7] was 7.5 ×10^4.
In the case of `CC(C)=CCc1c(O)ccc2c(=O)cc(-c3ccncc3)oc12` [Compound 36, 7-hydroxy-8-(3-methylbut-2-enyl)-2-(pyridin-4-yl)-4H-chromen-4-one], the “Cell Number (×10^4)” value [2, 3] is reported as 25.6 ×10^4, the “Cell Number (×10^4)” value [2, 4] is reported as 14.8 ×10^4 and the “Cell Number (×10^4)” value [2, 5] is reported as 10.65 ×10^4. The “Cell Number (×10^4)” value [2, 6] was 3.65 ×10^4, the “Cell Number (×10^4)” value [2, 7] was 1.4 ×10^4 and the inhibition in vivo at 35 mg/kg [1] was 56%.
With `CC(C)=CCc1c(O)ccc2c(=O)cc(-c3cccnc3)oc12` [Compound 38, 7-hydroxy-8-(3-methylbut-2-enyl)-2-(pyridin-3-yl)-4H-chromen-4-one] the “Cell Number (×10^4)” value [2, 3] was 27.8 ×10^4, the “Cell Number (×10^4)” value [2, 4] was 19.66 ×10^4 and the “Cell Number (×10^4)” value [2, 5] was 13.8 ×10^4. For the same compound, the “Cell Number (×10^4)” value [2, 6] was 10.1 ×10^4, the “Cell Number (×10^4)” value [2, 7] was 2.6 ×10^4 and the inhibition in vivo at 35 mg/kg [1] was 24%.
`CC/C(=C(\c1ccccc1)c1ccc(OCCN(C)C)cc1)c1ccccc1` [Tamoxifen, reference compound] was tested, and the inhibition in vivo at 35 mg/kg [1] was 40 to 50%.
